Laboratory results published in US9469613B2, “(N-(cyanomethyl)-4-(2-(4-morpholinophenylamino)pyrimidin-4-yl)benzamide” (Gilead Sciences, Inc., priority 2014, dated 2016).
Structures can show the parent of a compound that is named as a salt.

What was measured:
[1] = Effects of antioxidants on degradation of CYT-0387 Form II in aqueous solution (HPLC); type: physicochemical
Protocol: This was determined from the study that investigated the potential effects of different antioxidants in inhibiting or preventing degradation of CYT-0387 dihydrochloride monohydrate Form II. In the initial study, five antioxidants of three different mechanisms of action were examined: free radical scavenger antioxidants (propyl gallate, butylated hydroxyanisole (BHA), and butylated hydroxytoluene (BHT)), a sacrificial reductant (ascorbic acid), and an oxygen scavenger (sodium metabisulfite).
Aqueous solutions containing 20 μg/mL of CYT-0387 dihydrochlorid monohydrate Form II in 70% (v/v) 50 mM acetate buffer (pH 4.0) and 30% (v/v) methanol were incubated in absence (which was used as control) and presence of 0.1% (w/v) antioxidant at 60° C. for up to 7 days. At Day 0, 5 and 7, the solution was analyzed using a reverse-phase HPLC with a Zorbax SB-C8 column ([…].). […] While total degradation products could not be determined for 0.1% ascorbic acid due to interference, the main oxidative degradation products were not observed (data not shown).
In additional studies, the effects of the lower concentrations of 0.01% and 0.001% (w/v) of propyl gallate, BHA, and ascorbic acid on the stability of CYT-0387 were examined under the same condition. […] Moreover, at 0.001% (w/v) antioxidant level, the presence of propyl gallate decreased or inhibited the degradation of CYT-0387 relative to BHA and ascorbic acid (Table 7).

[2] = Relative bioavailability of CYT-0387 tablet vs capsule, food and omeprazole effect, healthy subjects; type: in vivo, human; details: from 100 to 800 mg
Protocol: CYT-0387 is a selective small molecule inhibitor of Janus kinase 1 and 2 (JAK1/JAK2), and is currently under investigation to treat myelofibrosis. In a Phase 1/2 study in myelofibrosis patients, 300 mg CYT-0387 capsule once daily was selected as Phase 3 dose based on a favorable benefit:risk profile. An immediate release tablet formulation (CYT-0387 tablet) was developed for further clinical evaluation. The relative bioavailability of CYT-0387 tablet vs capsule was evaluated in this study to identify Phase 3 dose of CYT-0387 tablet. CYT-0387 tablet (100 to 300 mg) vs capsule (300 mg) pharmacokinetics (PK) after a single dose was evaluated in healthy subjects. CYT-0387 tablet PK at supratherapeutic doses (400 and 800 mg), under fed and fasted conditions, and with an acid reducing agent (i.e., omeprazole) was also evaluated. Intensive PK sampling occurred up to 36 hours postdose. Safety was monitored throughout the study. A parametric analysis of variance (ANOVA) using a mixed-effects model was used to fit to the natural logarithmic transformation of PK parameters (AUC and Cmax). The 90% confidence intervals were constructed for the ratio of geometric means of CYT-0387 tablet PK at 100, 150, 200 and 300 mg vs CYT-0387 capsule 300 mg, using equivalence bounds of 70% to 143% for AUC and Cmax. A similar approach was used to assess the effect of food and omeprazole.

[3] = tested on: hepcidin production in HepG2 cells; experiment: BMP6-mediated hepcidin induction in HepG2 cells (qRT-PCR); type: cell-based; details: for hepcidin fold-change induction (normalized percentage): HepG2, 10 ng/mL BMP6 6 hours, 100% = vehicle
Text: This study characterized the effect of CYT-0387 on hepcidin production in HepG2 cells, a hepatocellular carcinoma cell line. Bone morphogenic proteins (BMPs) is shown to be involved in the transcriptional induction of hepcidin in hepatocytes by facilitating the association of constitutively active Type-II BMP receptor kinases (BMPR-kinase) with Type-I BMPR-kinase (Andriopoulos, et al. Nat Genet, 2009. 41(4): p482-7; Zhao, et al., J Clin Invest, 2013. 123(6): p2337-43).
HepG2 cells were preincubated for 2 hours with CYT-0387 (ranging from 0 μM to 10 μM) in the presence of 1% FBS then stimulated for 6 hours with 10 ng/mL of BMP6. Total RNA was isolated from the cells and analyzed for the levels of hepcidin by qRT-PCR. GUSB (glucuronidase, beta) was used as a house keeping control to normalize the levels measured by qRT-PCR. The percentage of hepcidin fold-change induction was calculated (100% is equal to hepcidin induction in vehicle treated cells) and summarized in Table 9.

[4] = tested on: phospho-SMAD1/5/8 in HepG2 cells; experiment: BMP6-mediated phospho-SMAD1/5/8 levels in HepG2 cells (immunoblot); type: cell-based; details: for phospho-SMAD1/5/8 levels (normalized percentage): HepG2, 10 ng/mL BMP6 30 minutes, 100% = vehicle
Protocol: HepG2 cells were preincubated for 2 hours with increasing concentrations of CYT-0387 (0.02 to 10 μM CYT387) in the presence of 1% FBS and then stimulated for 30 minutes with 10 ng/mL of BMP6. Protein was extracted from the lysed cells and analyzed using immunoblot analysis with the antibodies specific for phospho-SMAD1 (Ser463/465), phospho-SMAD5 (Ser463/465) and phospho-SMAD8 (Ser465/467) and β-actin. Raw phospho-SMAD1/5/8 levels were quantified using densitometry software (Image Studio) and normalized to β-actin levels. The percentage of phospho-SMAD1/5/8 levels was calculated (100% is equal to phospho-SMAD1/5/8 levels in vehicle treated cells stimulated with 10 ng/mL of BMP6) and summarized in Table 9.

N#CCNC(=O)c1ccc(-c2ccnc(Nc3ccc(N4CCOCC4)cc3)n2)cc1 [CYT-0387 Form II, N-(cyanomethyl)-4-(2-(4-morpholinophenylamino)pyrimidin-4-yl)benzamide dihydrochloride monohydrate Form II]
main oxidative degradation products ([1]; 0.1% ascorbic acid, 60° C. (data not shown)): not observed | amount degraded ([1]; in the presence of 0.1% (w/v) propyl gallate or BHA, 60° C., up to 7 days): Less than one percent | Total Degradation ([1]; pH 4 aqueous buffer, 60° C., control, no antioxidant, day 0): 0.29% | Total Degradation ([1]; pH 4 aqueous buffer, 60° C., control, no antioxidant, day 5): 17.24% | Total Degradation ([1]; pH 4 aqueous buffer, 60° C., control, no antioxidant, day 7): 21.84% | Total Degradation ([1]; pH 4 buffer, 60° C., BHA 0.001% w/v, day 0): 0.30% | Total Degradation ([1]; pH 4 buffer, 60° C., BHA 0.001% w/v, day 5): 7.64% | Total Degradation ([1]; pH 4 buffer, 60° C., BHA 0.001% w/v, day 7): 13.76% | Total Degradation ([1]; pH 4 buffer, 60° C., BHA 0.01% w/v, day 0): 0.55% | Total Degradation ([1]; pH 4 buffer, 60° C., BHA 0.01% w/v, day 5): 1.75% | Total Degradation ([1]; pH 4 buffer, 60° C., BHA 0.01% w/v, day 7): 3.04% | Total Degradation ([1]; pH 4 buffer, 60° C., BHA 0.1% w/v, day 0): 0.45% | Total Degradation ([1]; pH 4 buffer, 60° C., BHA 0.1% w/v, day 5): 0.50% | Total Degradation ([1]; pH 4 buffer, 60° C., BHA 0.1% w/v, day 7): 1.24% | Total Degradation ([1]; pH 4 buffer, 60° C., BHT 0.1% w/v, day 0): 0.06% | Total Degradation ([1]; pH 4 buffer, 60° C., BHT 0.1% w/v, day 5): 1.71% | Total Degradation ([1]; pH 4 buffer, 60° C., BHT 0.1% w/v, day 7): 4.35% | Total Degradation ([1]; pH 4 buffer, 60° C., ascorbic acid 0.001% w/v, day 0): 0.51% | Total Degradation ([1]; pH 4 buffer, 60° C., ascorbic acid 0.001% w/v, day 5): 17.95% | Total Degradation ([1]; pH 4 buffer, 60° C., ascorbic acid 0.001% w/v, day 7): 21.28% | Total Degradation ([1]; pH 4 buffer, 60° C., ascorbic acid 0.01% w/v, day 0): 0.20% | Total Degradation ([1]; pH 4 buffer, 60° C., ascorbic acid 0.01% w/v, day 5): 1.58% | Total Degradation ([1]; pH 4 buffer, 60° C., ascorbic acid 0.01% w/v, day 7): 1.78% | Total Degradation ([1]; pH 4 buffer, 60° C., propyl gallate 0.001% w/v, day 0): 0.22% | Total Degradation ([1]; pH 4 buffer, 60° C., propyl gallate 0.001% w/v, day 5): 1.98% | Total Degradation ([1]; pH 4 buffer, 60° C., propyl gallate 0.001% w/v, day 7): 4.32% | Total Degradation ([1]; pH 4 buffer, 60° C., propyl gallate 0.01% w/v, day 0): 0.22% | Total Degradation ([1]; pH 4 buffer, 60° C., propyl gallate 0.01% w/v, day 5): 0.38% | Total Degradation ([1]; pH 4 buffer, 60° C., propyl gallate 0.01% w/v, day 7): 0.72% | Total Degradation ([1]; pH 4 buffer, 60° C., propyl gallate 0.1% w/v, day 0): 0.29% | Total Degradation ([1]; pH 4 buffer, 60° C., propyl gallate 0.1% w/v, day 5): 0.31% | Total Degradation ([1]; pH 4 buffer, 60° C., propyl gallate 0.1% w/v, day 7): 0.32% | Total Degradation ([1]; pH 4 buffer, 60° C., sodium metabisulfite 0.1% w/v, day 0): 0.33% | Total Degradation ([1]; pH 4 buffer, 60° C., sodium metabisulfite 0.1% w/v, day 5): 43.83% | Total Degradation ([1]; pH 4 buffer, 60° C., sodium metabisulfite 0.1% w/v, day 7): 46.31%

N#CCNC(=O)c1ccc(-c2ccnc(Nc3ccc(N4CCOCC4)cc3)n2)cc1 [CYT-0387, N-(cyanomethyl)-4-(2-(4-morpholinophenylamino)pyrimidin-4-yl)benzamide]
dose proportionality of plasma exposures [2]: less-than-dose-proportionally | effect on BMP6-mediated hepcidin induction ([3]; 0 μM to 10 μM, HepG2): dose-dependent inhibition | hepcidin fold-change induction (normalized percentage) ([3]; 0.020 μM): 115% | hepcidin fold-change induction (normalized percentage) ([3]; 0.039 μM): 91% | hepcidin fold-change induction (normalized percentage) ([3]; 0.078 μM): 74% | hepcidin fold-change induction (normalized percentage) ([3]; 0.156 μM): 86% | hepcidin fold-change induction (normalized percentage) ([3]; 0.313 μM): 89% | hepcidin fold-change induction (normalized percentage) ([3]; 0.625 μM): 45% | hepcidin fold-change induction (normalized percentage) ([3]; 1.25 μM): 28% | hepcidin fold-change induction (normalized percentage) ([3]; 2.5 μM): 6% | hepcidin fold-change induction (normalized percentage) ([3]; 5.0 μM): −4% | hepcidin fold-change induction (normalized percentage) ([3]; 10.0 μM): −3% | phospho-SMAD1/5/8 levels (normalized percentage) ([4]; 0.020 μM): 83% | phospho-SMAD1/5/8 levels (normalized percentage) ([4]; 0.039 μM): 80% | phospho-SMAD1/5/8 levels (normalized percentage) ([4]; 0.078 μM): 91% | phospho-SMAD1/5/8 levels (normalized percentage) ([4]; 0.156 μM): 96% | phospho-SMAD1/5/8 levels (normalized percentage) ([4]; 0.313 μM): 88% | phospho-SMAD1/5/8 levels (normalized percentage) ([4]; 0.625 μM): 91% | phospho-SMAD1/5/8 levels (normalized percentage) ([4]; 1.25 μM): 65% | phospho-SMAD1/5/8 levels (normalized percentage) ([4]; 2.5 μM): 52% | phospho-SMAD1/5/8 levels (normalized percentage) ([4]; 5.0 μM): 40% | phospho-SMAD1/5/8 levels (normalized percentage) ([4]; 10.0 μM): 31% | effect on BMP6-mediated phospho-SMAD1/5/8 levels ([4]; 0.02 to 10 μM, HepG2): dose-dependent inhibition
